Assays:
[1] = tested on: aryl hydrocarbon receptor (AHR) signaling; assay: Cypla1 mRNA (AHR signaling) in ileum of mice with experimental NEC, qPCR; format: in vivo, mouse; conditions: 4 days, vs vehicle
Protocol: (§1) Necrotizing enterocolitis (NEC) was induced in 7-day-old mouse pups by gavage feeding and hypoxia exposure for 4 days in presence of abacavir, lansoprazole, tranilast and raberprazole. The ileum was harvested at the end of the experiment and the mRNA expression of target genes was analyzed by qPCR.
Referring now to FIG. 1, the mRNA expression of Cypla1, the down-stream gene of aryl hydrocarbon receptor (AHR) signaling, was quantified in the ileum of experimental NEC models. Data are represented as mean±SEM; *p<0.05 between indicated groups; each dot represents an individual mouse.

mice with NEC = assay: mRNA of proinflammatory cytokines and NEC markers in ileum of mice with experimental NEC, qPCR; format: in vivo, mouse; conditions: vs vehicle-treated group
Protocol: as §1
Referring now to FIG. 2, the mRNA expression of pro-inflammatory cytokine tumor necrosis factor alpha (Tnf) was quantified in the ileum of experimental NEC models. Data are represented as mean±SEM; *p<0.05 between indicated groups; each dot represents an individual mouse.
Referring now to FIG. 3, the mRNA expression of pro-inflammatory Interleukin-6 (IL-6) was quantified in the ileum of experimental NEC models. Data are represented as mean±SEM; *p<0.05 between indicated groups; each dot represents an individual mouse.
Referring now to FIG. 4, the mRNA expression of NEC marker S100 calcium binding protein A8 (S100a8) was quantified in the ileum of experimental NEC models. Data are represented as mean±SEM; *p<0.05 between indicated groups; each dot represents an individual mouse.
Referring now to FIG. 5, the mRNA expression of NEC marker lipocalin 2 (Lcn2) was quantified in the ileum of experimental NEC models. Data are represented as mean±SEM; *p<0.05 between indicated groups; each dot represents an individual mouse.
Referring now to FIG. 6, the mRNA expression of NEC marker intestinal fatty acid-binding protein (iFabp) was quantified in the ileum of experimental NEC models. Data are represented as mean±SEM; *p<0.05 between indicated groups; each dot represents an individual mouse.

Nc1nc(NC2CC2)c2ncn([C@H]3C=C[C@@H](CO)C3)c2n1 [abacavir]
mRNA expression of Cypla1, the down-stream gene of AHR signaling [1]: activated AHR signaling pathway
mRNA expression of Interleukin-6 (IL-6) (mice with NEC): significantly attenuated IL-6 expression
mRNA expression of NEC marker S100a8 (mice with NEC): significantly attenuated S100a8 expression
mRNA expression of NEC marker lipocalin 2 (Lcn2) (mice with NEC): significantly attenuated Lcn2 expression
mRNA expression of tumor necrosis factor alpha (Tnf) (mice with NEC): significantly attenuated Tnf expression

Cc1c(OCC(F)(F)F)ccnc1C[S+]([O-])c1nc2ccccc2[nH]1 (centres unmarked) [lansoprazole]
mRNA expression of Cypla1, the down-stream gene of AHR signaling [1]: activated AHR signaling pathway
mRNA expression of Interleukin-6 (IL-6) (mice with NEC): significantly attenuated IL-6 expression
mRNA expression of NEC marker S100a8 (mice with NEC): significantly attenuated S100a8 expression
mRNA expression of NEC marker iFabp (mice with NEC): significantly attenuated iFabp expression
mRNA expression of NEC marker lipocalin 2 (Lcn2) (mice with NEC): significantly attenuated Lcn2 expression
mRNA expression of tumor necrosis factor alpha (Tnf) (mice with NEC): significantly attenuated Tnf expression

COCCCOc1ccnc(C[S+]([O-])c2nc3ccccc3[nH]2)c1C (centres unmarked) [raberprazole]
mRNA expression of Cypla1, the down-stream gene of AHR signaling [1]: nor raberprazole, activated AHR signaling pathway
mRNA expression of NEC marker S100a8 (mice with NEC): significantly attenuated S100a8 expression
mRNA expression of NEC marker iFabp (mice with NEC): significantly attenuated iFabp expression

Source: US11458141B2, “Aryl hydrocarbon receptor (AhR) agonists for the prevention and treatment of inflammatory disorders” (The Johns Hopkins University, priority 2017, dated 2022)
